{"source": "patent US20230338463A1", "about": "“ICD PEPTIDE AND USE THEREOF FOR HAVING CYTOTOXIC ACTIVITY ON CANCER CELLS” (NATIONAL TSING HUA UNIVERSITY, priority 2022, published 2023)", "key": {"PC 9 cells": {"system": "PC 9 cells", "experiment": "Extracellular cytochrome c ELISA, PC 9", "type": "cell-based, human", "settings": "PC 9, 2-fold IC50, time not stated", "procedure": "The cytochrome c release was a part of mitochondrial damage-associated molecular patterns, therefore the amount of cytochrome c released into supernatant were measured by cytochrome c ELISA assay.\nThe cells were washed three times using PBS solution to remove all serum components and 1× 10^6 cells/ mL was solubilised in ice-cold 0.5% Triton-X 100-PBS solution at 2-8° C. for 10 minutes. Then, the speed of 16,000 xg was applied to centrifuge the extract for another 10 minutes, and serially dilute the aliquot of supernatant collected with Calibrator Diluent RD5-18 as described in the manufacturer’s protocol.\nQuantifying the volume of cytochrome c released and the results were presented in FIGS. 7A-7C via ELISA assay for 0.5, 1, 1.5, and 2 hours. SEQ ID NO:4 group induced a relatively high amount of cytochrome c compared to SEQ ID NO:3 group and SEQ ID NO: 5 group. The cytochrome c release for SEQ ID NO:4 group was double the amount of SEQ ID NO:3 group and SEQ ID NO: 5 group. The trend of cytochrome c release in SEQ ID NO:4 and SEQ ID NO:3 treated PC 9 cells were escalating from 30 minutes to 4 hours, in contrast the SEQ ID NO: 5 group has fluctuating trend. […] The highest amount of cytochrome c detected in the supernatant for SEQ ID NO:3 and SEQ ID NO: 5 were around 3.5 ng/mL and lower than 2 ng/mL for the least."}, "MN-11 cells [1]": {"system": "MN-11 cells", "experiment": "Extracellular cytochrome c ELISA, MN-11", "type": "cell-based, murine", "procedure": "The cells were treated with 2× IC50 Nal-P-113 (FIG. 8A), Bip-P-113 (FIG. 8B), and Dip-P-113 (FIG. 8C) for 0.5, 1, 1.5, 2, and 4 h, respectively. Untreated cells were used as a control. Results are presented as mean ± SD of three independent experiments. **P<0.01; ***P<0.001 compared with control.\nNot only that the amount of supernatant cytochrome c release from MN-11 cells was measured by ELISA assay to reveal peptide induced mitochondrial DAMPs. Five time points (0.5, 1, 1.5, 2 and 4 hours) were used to quantify the amount of cytochrome c released and the results were shown in FIGS. 8A-8C. Nal-P-113 (FIG. 8A) and Dip-P-113 (FIG. 8C) induced a relatively high amount of cytochrome c compared to Bip-P-113 (FIG. 8B). In the Nal-P-113 (FIG. 8A) treated group, the amount of cytochrome c release has come to a maximal value of nearly 25 ng/mL at 2 hours while the minimum value of 10 ng/mL at 30 minutes has been observed. The highest amounts of cytochrome c detected in the supernatant for Dip-P-113 (FIG. 8C) was around 35 ng/mL at 4 hours and the lower amount around 18 ng/mL at 30 minutes."}, "MN-11 cell line": {"system": "MN-11 cell line", "type": "cell-based, murine", "settings": "2 h", "procedure": "Besides, evaluation of the killing kinetics of Nal-P-113, Bip-P-113 and Dip-P-113 for MN-11 was determined by MTT assay. Two-fold half 1inhibitory concentration (2 × IC50) was chosen for the experiments and the results were recorded at selected time points (30 mins, 1 hour, 2 hours and 4 hours). […] In 2 hours, the cell survival rate was near 50%."}, "MN-11 cells [2]": {"system": "MN-11 cells", "experiment": "PI/Hoechst 33342 staining, plasma membrane integrity", "type": "cell-based, murine", "settings": "MN-11, 2× IC50, 2 hrs, data not shown", "procedure": "To examine the membrane-lytic activities of peptides, the PI/Hoechst 33342 staining was performed in this embodiment. The PI dye was used to stain damaged/dead cells, and Hoechst 33342 was used to specifically stain the nuclei of living cells. MN-11 cells were seeded at 50,000 cells/well in a RPMI medium and allowed to adhere for 24 hours. Then the cells were replaced with serum-free RPMI medium, and then treated with 2× IC50 peptides at 37° C. for 2 hrs. DMEM medium without peptide was used as negative control. The PI and Hoechst 33342 were added at a final concentration of 1 µg/ml for 20 mins. The cells were observed using the inverted fluorescent microscope Zeiss equipped with a 40× oil objective lens (Carl Zeiss, Germany). The experiments were repeated three times independently\nTo examine the membrane-lytic activities of Nal-P-113, Bip-P-113, and Dip-P-113, the DNA binding fluorescent dye Propidium iodide (PI) was used to stain damaged/dead cells, and Hoechst 33342 was used to specifically stain the nuclei of living cells."}, "MN-11 cells [3]": {"system": "MN-11 cells", "experiment": "Extracellular HMGB1 Western blot, MN-11", "type": "cell-based, murine", "procedure": "On the other hand, The MN-11 cells were seeded at the density of 1 × 10^5 cells/well and left to adhere for 24 hrs. Cells were treated with Nal-P-113, Bip-P-113 and Dip-P-113 at 2× IC50 for 1 and 4 hours. After treatment of the peptides, the supernatant and lysate of the cells were collected separately for further experiments. The supernatant was collected after centrifugation at the speed of 1,400 ×g. The cell lysate was washed twice using PBS before the sonication of the pellet using bio-disruptor, and the disrupted pellet was centrifuged again for 10 minutes under 14,000 rpm at 4° C. The concentration of the samples was quantified using the Bradford assay. Both supernatants and cell lysate were loaded and run on the sodium dodecyl sulfate polyacrylamide gel electrophoresis (SDS-PAGE), and then electro transferred to a polyvinylidene difluoride (PVDF) membrane (Merck-Millipore, Burlington, Massachusetts, United States) in electro-blot system, 30 V, 400 mA, for 75 mins. The membrane was incubated in blocking buffer (5% skim milk, TBST buffer) for 1 hour in room temperature and washed in TBST buffer three times. […] The secondary antibody of rabbit (diluted in 1: 10000) was incubated following the rinsing with PBST three times for 2 hours the next day in the room temperature before being developed using luminol reagent and imaged by a detected system (ImageQuant LAS 4000 mini)."}}, "note": "Non-standard residues stand in square brackets, D forms with d. Residues, ends and D or L forms follow the SMILES beside them. 2Nal = N[C@@H](Cc1ccc2ccccc2c1)C(=O)O"}
{"compound": "CC(=O)N[C@@H](C)C(=O)N[C@@H](CCCCN)C(=O)N[C@@H](CCCNC(=N)N)C(=O)N[C@@H](Cc1ccc2ccccc2c1)C(=O)N[C@@H](Cc1ccc2ccccc2c1)C(=O)NCC(=O)N[C@@H](Cc1ccc(O)cc1)C(=O)N[C@@H](CCCCN)C(=O)N[C@@H](CCCNC(=N)N)C(=O)N[C@@H](CCCCN)C(=O)N[C@@H](Cc1ccccc1)C(=O)N[C@@H](Cc1ccc2ccccc2c1)C(N)=O", "note": "[SEQ ID NO:3, Ac-AKR Nal Nal GYKRKFNal-NH2] (Ac-AKR[2Nal][2Nal]GYKRKF[2Nal]-NH2)", "values": [{"measurement": "highest amount of cytochrome c detected in the supernatant", "setting": "PC 9 cells", "result": "around 3.5 ng/mL"}, {"measurement": "cytochrome c release, minimum / lower amount", "setting": "MN-11 cells [1]; MN-11, 2× IC50, at 30 minutes", "result": 10, "unit": "ng/mL"}, {"measurement": "cytochrome c release, maximal value", "setting": "MN-11 cells [1]; MN-11, 2× IC50, at 2 hours", "result": "~25", "unit": "ng/mL"}, {"measurement": "cell survival rate", "setting": "MN-11 cell line", "result": "~50", "unit": "%"}, {"measurement": "plasma membrane integrity (PI entering cells)", "setting": "MN-11 cells [2]", "result": "can cause damage to the plasma membrane integrity"}, {"measurement": "HMGB1 in supernatant", "setting": "MN-11 cells [3]; MN-11, 2× IC50, 1 hour", "result": "observed in the supernatant"}, {"measurement": "HMGB1 in supernatant", "setting": "MN-11 cells [3]; MN-11, 2× IC50, 4 hours", "result": "still a significant concentration"}]}
